Literature values in patent US20240058412A1, “MODIFIED RELEASE FORMULATION COMPRISING WITHANOLIDES” (INVENTIA HEALTHCARE LIMITED, priority 2021, published 2024).

Conditions: mice plasma, oral Withania somnifera extract 1000 mg/kg

CC1=C(CO)C(=O)O[C@@H]([C@@H](C)[C@H]2CC[C@H]3[C@@H]4C[C@H]5O[C@]56[C@@H](O)C=CC(=O)[C@]6(C)[C@H]4CC[C@]23C)C1 [withaferin-A]
half-life: 59.92 ± 15.90 min

CC1=C(C)C(=O)O[C@@H]([C@](C)(O)[C@H]2CC[C@H]3[C@@H]4[C@@H]5O[C@@H]5[C@@]5(O)CC=CC(=O)[C@]5(C)[C@H]4CC[C@]23C)C1 [withanolide-A]
half-life: 45.22 ± 9.95 min
